Experimental findings from ChEMBL document CHEMBL5226353, “Cytotoxic Activities of 9,10-seco-Cycloartane-Type Triterpenoids from the Chinese Liverwort Lepidozia reptans” (J Nat Prod, 2021) are described below.

One experiment deals with NCI-H446. The experiment can be described thus: Cytotoxicity against human NCI-H446 cells assessed as inhibition of cell growth incubated for 48 hrs by MTT assay. The class given is functional, cell-based. Particulars: NCI-H446, 48 h.
For a further experiment, the system named is NCI-H3255. The experiment can be described thus: Cytotoxicity against human NCI-H3255 cells assessed as inhibition of cell growth incubated for 48 hrs by MTT assay. The class given is functional, cell-based. Particulars: NCI-H3255, 48 h.
Another experiment relates to A549. The experiment can be described thus: Cytotoxicity against human A549 cells assessed as inhibition of cell growth incubated for 48 hrs by MTT assay. Particulars: A549, 48 h. The class given is functional, cell-based.
The subject of experiment [1] is PC-3. The experiment can be described thus: Cytotoxicity against human PC-3 cells assessed as inhibition of cell growth incubated for 48 hrs by MTT assay. The class given is functional, cell-based. Particulars: PC-3, 48 h.
Experiment [2] relates to PC-3. The experiment can be described thus: Induction of apoptosis in human PC-3 cells assessed as late apoptotic cells at 10 uM measured after 24 hrs by annexinV-FITC staining based flow cytometric analysis (reference value: 1.87 %). The class given is functional.
Experiment [3] deals with PC-3. The experiment can be described thus: Induction of apoptosis in human PC-3 cells assessed as viable cells up to 10 uM measured at 8 hrs by annexinV-FITC staining based flow cytometric analysis (reference value: 91.1 %). The class given is functional.
Experiment [4] has as its system PC-3. The experiment can be described thus: Induction of apoptosis in human PC-3 cells assessed as early apoptotic cells at 5 uM measured after 24 hrs by annexinV-FITC staining based flow cytometric analysis (reference value: 0.12 %). The class given is functional.
Experiment [5] relates to PC-3. The experiment can be described thus: Induction of apoptosis in human PC-3 cells assessed as early apoptotic cells up to 10 uM measured at 24 hrs by annexinV-FITC staining based flow cytometric analysis (reference value: 0.55 %). The class given is functional.
The test system of experiment [6] is PC-3. The experiment can be described thus: Induction of apoptosis in human PC-3 cells assessed as increase in ROS levels at measured after 24 hrs by DCFH-DA staining based flow cytometry assay. The class given is functional, cell-based. Particulars: dose <= 10.0 µM.
The subject of experiment [7] is PC-3. The experiment can be described thus: Induction of apoptosis in human PC-3 cells assessed as early apoptotic cells at 2.5 uM measured after 24 hrs by annexinV-FITC staining based flow cytometric analysis (reference value: 0.12 %). The class given is functional.
For experiment [8], the system named is PC-3. The experiment can be described thus: Induction of apoptosis in human PC-3 cells assessed as late apoptotic cells at 2.5 uM measured after 24 hrs by annexinV-FITC staining based flow cytometric analysis (reference value: 1.87 %). The class given is functional.
The test system of experiment [9] is PC-3. The experiment can be described thus: Induction of apoptosis in human PC-3 cells assessed as necrotic cells up to 10 uM measured at 12 hrs by annexinV-FITC staining based flow cytometric analysis (reference value: 3.69 %). The class given is functional.
The subject of experiment [10] is PC-3. The experiment can be described thus: Induction of apoptosis in human PC-3 cells assessed as late apoptotic cells up to 10 uM measured at 12 hrs by annexinV-FITC staining based flow cytometric analysis (reference value: 4.64 %). The class given is functional.
For experiment [11], the system named is PC-3. The experiment can be described thus: Induction of apoptosis in human PC-3 cells assessed as viable cells up to 10 uM measured att 12 hrs by annexinV-FITC staining based flow cytometric analysis (reference value: 91.1 %). The class given is functional.
Experiment [12] has as its system PC-3. The experiment can be described thus: Induction of apoptosis in human PC-3 cells assessed as early apoptotic cells up to 10 uM measured at 4 hrs by annexinV-FITC staining based flow cytometric analysis (reference value: 0.55 %). The class given is functional.
In experiment [13] the test system is PC-3. The experiment can be described thus: Induction of apoptosis in human PC-3 cells assessed as early apoptotic cells up to 10 uM measured at 8 hrs by annexinV-FITC staining based flow cytometric analysis (reference value: 0.55 %). The class given is functional.
The test system of experiment [14] is PC-3. The experiment can be described thus: Induction of mitochondrial membrane potential loss in human PC-3 cells at 4 uM measured after 24 hrs by JC-1 dye-based flow cytometric analysis (reference value: 100 %). The class given is functional.
The subject of experiment [15] is PC-3. The experiment can be described thus: Induction of apoptosis in human PC-3 cells assessed as late apoptotic cells up to 10 uM measured at 24 hrs by annexinV-FITC staining based flow cytometric analysis (reference value: 4.64 %). The class given is functional.
Experiment [16] has as its system PC-3. The experiment can be described thus: Induction of apoptosis in human PC-3 cells assessed as early apoptotic cells up to 10 uM measured at 12 hrs by annexinV-FITC staining based flow cytometric analysis (reference value: 0.55 %). The class given is functional.
Experiment [17] has as its system PC-3. The experiment can be described thus: Induction of mitochondrial membrane potential loss in human PC-3 cells at 2 uM measured after 24 hrs by JC-1 dye-based flow cytometric analysis (reference value: 100 %). The class given is functional.
In experiment [18] the test system is PC-3. The experiment can be described thus: Induction of apoptosis in human PC-3 cells assessed as necrotic cells at 10 uM measured after 24 hrs by annexinV-FITC staining based flow cytometric analysis (reference value: 5.09 %). The class given is functional.
Experiment [19] concerns PC-3. The experiment can be described thus: Induction of apoptosis in human PC-3 cells assessed as necrotic cells up to 10 uM measured at 4 hrs by annexinV-FITC staining based flow cytometric analysis (reference value: 3.69 %). The class given is functional.
The subject of experiment [20] is PC-3. The experiment can be described thus: Induction of apoptosis in human PC-3 cells assessed as late apoptotic cells up to 10 uM measured at 2 hrs by annexinV-FITC staining based flow cytometric analysis (reference value: 4.64 %). The class given is functional.
The test system of experiment [21] is PC-3. The experiment can be described thus: Induction of apoptosis in human PC-3 cells assessed as viable cells up to 10 uM measured at 4 hrs by annexinV-FITC staining based flow cytometric analysis (reference value: 91.1 %). The class given is functional.
The subject of experiment [22] is PC-3. The experiment can be described thus: Induction of apoptosis in human PC-3 cells assessed as viable cells up to 10 uM measured at 2 hrs by annexinV-FITC staining based flow cytometric analysis (reference value: 91.1 %). The class given is functional.
Experiment [23] relates to PC-3. The experiment can be described thus: Induction of apoptosis in human PC-3 cells assessed as viable cells at 5 uM measured after 24 hrs by annexinV-FITC staining based flow cytometric analysis (reference value: 92.9 %). The class given is functional. Particulars: read-out: Activity.
Experiment [24] relates to PC-3. The experiment can be described thus: Induction of apoptosis in human PC-3 cells assessed as early apoptotic cells at 10 uM measured after 24 hrs by annexinV-FITC staining based flow cytometric analysis (reference value: 0.12 %). The class given is functional.
Experiment [25] has as its system PC-3. The experiment can be described thus: Induction of apoptosis in human PC-3 cells assessed as early apoptotic cells up to 10 uM measured at 2 hrs by annexinV-FITC staining based flow cytometric analysis (reference value: 0.55 %). The class given is functional.
Experiment [26] deals with PC-3. The experiment can be described thus: Induction of apoptosis in human PC-3 cells assessed as necrotic cells up to 10 uM measured at 2 hrs by annexinV-FITC staining based flow cytometric analysis (reference value: 3.69 %). The class given is functional.
In experiment [27] the test system is PC-3. The experiment can be described thus: Induction of apoptosis in human PC-3 cells assessed as necrotic cells up to 10 uM measured at 8 hrs by annexinV-FITC staining based flow cytometric analysis (reference value: 3.69 %). The class given is functional.
Experiment [28] concerns PC-3. The experiment can be described thus: Induction of apoptosis in human PC-3 cells assessed as late apoptotic cells up to 10 uM measured at 8 hrs by annexinV-FITC staining based flow cytometric analysis (reference value: 4.64 %). The class given is functional.
Experiment [29] deals with PC-3. The experiment can be described thus: Induction of apoptosis in human PC-3 cells assessed as viable cells at 2.5 uM measured after 24 hrs by annexinV-FITC staining based flow cytometric analysis (reference value: 92.9 %). Particulars: read-out: Activity. The class given is functional.
The test system of experiment [30] is PC-3. The experiment can be described thus: Induction of apoptosis in human PC-3 cells assessed as viable cells up to 10 uM measured att 24 hrs by annexinV-FITC staining based flow cytometric analysis (reference value: 91.1 %). The class given is functional.
Experiment [31] deals with PC-3. The experiment can be described thus: Induction of apoptosis in human PC-3 cells assessed as necrotic cells at 2.5 uM measured after 24 hrs by annexinV-FITC staining based flow cytometric analysis (reference value: 5.09 %). The class given is functional.
Experiment [32] concerns PC-3. The experiment can be described thus: Induction of apoptosis in human PC-3 cells assessed as viable cells at 10 uM measured after 24 hrs by annexinV-FITC staining based flow cytometric analysis (reference value: 92.9 %). Particulars: read-out: Activity. The class given is functional.
Experiment [33] has as its system PC-3. The experiment can be described thus: Induction of apoptosis in human PC-3 cells assessed as necrotic cells up to 10 uM measured at 24 hrs by annexinV-FITC staining based flow cytometric analysis (reference value: 3.69 %). The class given is functional.
Experiment [34] deals with PC-3. The experiment can be described thus: Induction of apoptosis in human PC-3 cells assessed as necrotic cells at 5 uM measured after 24 hrs by annexinV-FITC staining based flow cytometric analysis (reference value: 5.09 %). The class given is functional.
Experiment [35] concerns PC-3. The experiment can be described thus: Induction of apoptosis in human PC-3 cells assessed as late apoptotic cells up to 10 uM measured at 4 hrs by annexinV-FITC staining based flow cytometric analysis (reference value: 4.64 %). The class given is functional.
Experiment [36] has as its system PC-3. The experiment can be described thus: Induction of mitochondrial membrane potential loss in human PC-3 cells at 6 uM measured after 24 hrs by JC-1 dye-based flow cytometric analysis (reference value: 100 %). The class given is functional.
The test system of experiment [37] is PC-3. The experiment can be described thus: Induction of apoptosis in human PC-3 cells assessed as late apoptotic cells at 5 uM measured after 24 hrs by annexinV-FITC staining based flow cytometric analysis (reference value: 1.87 %). The class given is functional.

Where a name gives a salt, the structure may show the parent alone.

As to `COc1cccc2c1C(=O)c1c(O)c3c(c(O)c1C2=O)C[C@@](O)(C(=O)CO)C[C@@H]3O[C@H]1C[C@H](N)[C@H](O)[C@H](C)O1` [DOXORUBICIN HYDROCHLORIDE], the IC50 in the experiment on NCI-H446 is 1.7 µM; with NCI-H3255, 1.5 µM; in the experiment with A549, 1.2 µM; in the experiment with PC-3 [1] it was 0.4 µM.
Take `C=C(C)C(=O)CC[C@@H](C)[C@H]1[C@H](O)C[C@@]2(C)[C@@H]3CC[C@H]4C(C)(C)[C@@H](O)CC[C@]4(O)CC3=CC[C@]12C`: the Activity with PC-3 [2] is 40.3%; in the experiment on PC-3 [3] it was 88.8%; in the experiment with PC-3 [4], 1.64%; in the experiment with PC-3 [5] it was 3.3%; with PC-3 [6], “Dose-Dependent Effect”; in the experiment on PC-3 [7] it was 0.29%. Further, the Activity in the experiment with PC-3 [8] is listed as 2.06%; in the experiment with PC-3 [9] it was 3.48%; in the experiment with PC-3 [10], 7.37%; in the experiment with PC-3 [11] it was 86.5%; in the experiment on PC-3 [12], 0.39%; in the experiment with PC-3 [13], 0.76%. Also, the Activity in the experiment with PC-3 [14] stood at 71.5%; with PC-3 [15], 9.45%; in the experiment with PC-3 [16], 2.63%; in the experiment with PC-3 [17], 85.2%; with PC-3 [18], 12.9%; with PC-3 [19], 6.67%. Besides, the Activity in the experiment with PC-3 [20] came to 4.82%; with PC-3 [21] it was 87.1%; in the experiment with PC-3 [22] it was 88.4%; with PC-3 [24] it was 0.78%; in the experiment on PC-3 [25], 0.33%; with PC-3 [26], 6.41%. For the same compound, the Activity in the experiment on PC-3 [27] is recorded as 4.5%; in the experiment with PC-3 [28], 5.96%; in the experiment with PC-3 [30] it was 83%; in the experiment with PC-3 [31], 4.44%; with PC-3 [33], 4.25%; with PC-3 [34], 2.68%. In addition, the Activity with PC-3 [35] was 5.8%; in the experiment on PC-3 [36], 16.8%; in the experiment with PC-3 [37], 3.81%. Further, the IC50 in the experiment on NCI-H446 was found to be 5 µM; with NCI-H3255, 5.7 µM; with A549, 4.4 µM; with PC-3 [1], 4.2 µM. Besides, the viability at 5 µM in the experiment with PC-3 [23] was 91.9%. Further, the viability at 2.5 µM in the experiment on PC-3 [29] came out at 93.2%. Besides, the viability at 10 µM in the experiment with PC-3 [32] was determined as 45%.
`C=C(C[C@@H](C)[C@H]1[C@H](O)C[C@@]2(C)[C@@H]3CC[C@H]4C(C)(C)[C@@H](O)CC[C@]4(O)CC3=CC[C@]12C)C(C)C`: the IC50 in the experiment with NCI-H446 was 9.6 µM; with NCI-H3255, above 10 µM; with A549, 8.8 µM; in the experiment with PC-3 [1], 8.6 µM.
On to `CC(C)=CCC[C@@H](C)[C@H]1[C@H](O)C[C@@]2(C)[C@@H]3CC[C@H]4C(C)(C)[C@@H](O)CC[C@]4(O)CC3=CC[C@]12C`, for which the IC50 was determined as 7.5 µM with NCI-H446, 9.4 µM in the experiment on NCI-H3255, 7 µM in the experiment with A549 and 6.5 µM in the experiment on PC-3 [1].
